Reference: patent publication US5045566A, “Novel imidate insecticides” (ICI Americas Inc., priority 1989, dated 1991)

Experiments:
Format in all cases: in vivo
[1] = system: Housefly [Musca domestica]; test: Housefly contact mortality in dishes (HF), 48 hours; details: μg of test compound per 25 female flies
Procedure, shortened: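 LC50, as μg compound per 25 female flies, comes from dosage-mortality curves with doses from 100 μg downward. Residues were made by evaporating acetone plus 0.01% peanut oil in dishes, onto which 1-2-day-old females were caged; deaths were counted after 48 hours.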

[2] = system: Black Bean Aphid [Aphis fabae (Scop.)]; test: Black bean aphid spray test on nasturtium (BBA), 48 hours; details: percent of test compound in sprayed solution
Procedure, shortened: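 LC50, given as percent test compound in the sprayed liquid, was calculated from dosage-mortality curves using concentrations from 0.05% downward. Sprays in 50:50 acetone-water went to runoff on ~5 cm nasturtiums carrying 25-50 aphids of mixed ages, one day after infestation. Deaths were counted 48 h later under greenhouse conditions.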

[3] = system: Tobacco Budworm [Heliothis virescens (Fabricius)] eggs; test: Tobacco budworm eggs (TBW-E); details: percent in solution; 2-day old eggs
Procedure, shortened: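 Paper towel patches bearing 2-day old eggs were dipped in acetone solutions of compound, then set in petri dishes over larval rearing medium at 78° F. Mortality was scored once all control eggs had hatched and larvae were feeding. LC50, from dosage-mortality curves, is given as percent compound in solution.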

[4] = system: Cabbage Looper [Trichoplusia ni (Hubner)]; test: Cabbage looper leaf dip (CL), 3-5 days; details: percent in solution, second-instar larvae
Procedure, shortened: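 Compounds in 50-50 acetone-water were applied by dipping squash cotyledons (about 1×1.5 in) for 2-3 s; dried leaves went into petri dishes on moist filter paper with 5 second-instar larvae under high humidity. Mortality was scored after 3-5 days; LC50 from dosage-mortality curves, as percent compound in solution.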

[5] = system: Maize weevil [Sitophilus zeamais (Motschulsky)]; test: Maize weevil on dipped corn seeds (MW), 48 hours; details: percent in solution, adult weevils
Description: The compounds in Tables 1 and 2 above were tested for insecticidal activity using the following testing procedures. LC50 values, based on the results of these tests and calculated according to dosage-mortality curves, are expressed in Table 3.
Maize weevil [Sitophilus zeamais (Motschulsky)]:
Test compounds were diluted in a 50:50 acetone:water solution. Four corn seeds [Zea mays (L.)] which had been immersed in test solutions for 2-3 seconds and allowed to dry were placed in containers together with 10 adult weevils. The containers were covered and kept at a temperature of about 25° C. Mortality was recorded after 48 hours. Test concentrations ranged from 0.01% down to that at which 50% mortality occurred. The LC50 values are expressed below in Table 3 under the heading "MW" in terms of percent of the test compound in solution.

Row | Compound | LC50 HF [1] [µg] | LC50 BBA [2] [%] | LC50 TBW E (eggs) [3] [%] | LC50 CL [4] [%] | LC50 MW [5] [%]
1 | C=C(C)C(=Nc1ccc(F)c(Cl)c1)OCc1ccc(F)c(Oc2ccccc2)c1 [Compound 416] | < 100 | 0.0035 | 0.018 | 0.00027 | > 0.01
2 | CCc1ccccc1N=C(OCc1cccc(Oc2ccc(F)cc2)c1)C(C)C [Compound 411] | < 100 | > 0.05 | > 0.1 | > 0.1 | > 0.01
3 | CC(C)C(=Nc1ccc(C(F)(F)F)cc1[N+](=O)[O-])OCc1ccc(F)c(Oc2ccccc2)c1 [Compound 445] | < 100 | 0.001 | > 0.1 | 0.00045 | > 0.01
4 | CCOc1ccc(N=C(OCc2ccc(F)c(Oc3ccc(Cl)cc3)c2)C(C)C)cc1 [Compound 372] | > 100 | 0.001 | > 0.1 | > 0.1 | > 0.01
5 | CCOc1ccc(N=C(OCc2cccc(Oc3ccc(F)cc3)c2)C(C)C)cc1Br [Compound 446] | > 100 | 0.001 | < 0.1 | 0.0008 | > 0.01
6 | CC(C)C(=Nc1ccc(F)c(Cl)c1)OCc1cccc(Oc2c(F)c(F)c(F)c(F)c2F)c1 [Compound 460] | > 100 | > 0.05 | > 0.1 | 0.02 | > 0.01
7 | Cc1ccc(N=C(OCc2cccc(Oc3ccc(Cl)cc3)c2)C(C)C)cc1Cl [Compound 403] | < 100 | 0.001 | > 0.1 | > 0.1 | > 0.01
8 | CCc1ccc(N=C(OCc2cccc(Oc3ccccc3)c2)C(C)(C)C)cc1 [Compound 163] | > 100 | > 0.05 | > 0.1 | 0.004 | > 0.01
9 | CC(C)(C)C(=Nc1cccc(C(F)(F)F)c1)OCc1cccc(Oc2ccccc2)c1 [Compound 88] | > 100 | > 0.05 | > 0.1 | 0.018 | > 0.01
10 | Cc1cccc(N=C(OCc2cccc(Oc3ccc(F)cc3)c2)C(C)C)c1 [Compound 405] | < 100 | 0.0025 | > 0.1 | > 0.1 | > 0.01
11 | COCc1c(F)c(F)c(COC(=Nc2cccc(C(F)(F)F)c2)C(C)C)c(F)c1F [Compound 503] | 21 | 0.006 | 0.08 | 0.001 | > 0.01
12 | CC(C)C(=Nc1cccc(F)c1)OCc1ccc(F)c(Oc2ccc(F)cc2)c1 [Compound 342] | 4.1 | 0.0006 | 0.04 | 0.0008 | > 0.01
13 | CC(C)C(=Nc1ccc(Br)c(F)c1)OCc1cccc(Oc2ccc(Cl)cc2)n1 [Compound 551] | < 100 | 0.0006 | 0.035 | 0.00075 | > 0.01
14 | CC(C)C(=Nc1cccc(Cl)c1)OCc1ccc(F)c(Oc2ccc(F)cc2)c1 [Compound 341] | 4 | 0.0005 | 0.023 | 0.0005 | > 0.01
15 | COc1ccc(N=C(OCc2ccc(F)c(Oc3ccccc3)c2)C(C)C)cc1F [Compound 435] | < 100 | 0.001 | 0.04 | 0.002 | > 0.01
16 | CC(C)C(=Nc1ccc(OCC(F)(F)F)c(F)c1)OCc1cccc(Oc2ccc(Cl)cc2)c1 [Compound 429] | > 100 | 0.005 | < 0.1 | 0.0017 | > 0.01
17 | CC(C)C(=Nc1ccc(C(F)(F)F)cc1Cl)OCc1ccc(F)c(Oc2ccccc2)c1 [Compound 428] | > 100 | 0.003 | > 0.1 | 0.0017 | > 0.01
18 | CC(C)C(=Nc1ccc(OCC(F)(F)F)cc1)OCc1cccc(Oc2ccccc2)c1 [Compound 423] | > 100 | > 0.05 | > 0.1 | 0.002 | > 0.01
19 | CCOc1ccc(N=C(OCc2cccc(Oc3ccccc3)c2)C(C)C)cc1Cl [Compound 368] | < 100 | 0.001 | 0.04 | 0.002 | > 0.01
20 | CCOc1ccc(N=C(OCc2cccc(Oc3ccccc3)c2)C(C)C)cc1 [Compound 371] | < 100 | 0.0004 | > 0.1 | 0.0022 | > 0.01
21 | CC(C)C(=Nc1cccc(I)c1)OCc1cccc(Oc2ccc(Cl)cc2)c1 [Compound 389] | < 100 | 0.003 | > 0.1 | 0.00069 | > 0.01
22 | COCc1c(F)c(F)c(COC(=Nc2ccc(F)c(Cl)c2)C(C)C)c(F)c1F [Compound 505] | 14 | 0.002 | 0.09 | 0.0024 | > 0.01
23 | C=C(C)C(=Nc1ccc(F)c(Cl)c1)OCc1ccc(F)c(Oc2ccc(Cl)cc2)c1 [Compound 415] | < 100 | 0.0007 | 0.035 | 0.00075 | > 0.01
24 | CC(C)C(=Nc1ccc(Br)c(Br)c1)OCc1ccc(F)c(Oc2ccc(F)cc2)c1 [Compound 383] | < 100 | 0.0006 | 0.038 | 0.00029 | > 0.01
25 | COc1ccc(N=C(OCc2ccc(F)c(Oc3ccc(F)cc3)c2)C(C)C)cc1Cl [Compound 408] | < 100 | 0.0005 | 0.02 | 0.0015 | > 0.01
26 | C=C(C)C(=Nc1ccc(C(F)(F)F)cc1)OCc1cccc(Oc2ccccc2)c1 [Compound 430] | < 100 | 0.0006 | 0.032 | 0.001 | 0.004
